Reference: US8796256B2 (Janssen Pharmaceutica NV, priority 2010, dated 2014)
pEC50: −log10 of the molar value.

Molecular target: T1, ERR1 (also known as ERR-α or ERR-1) (Homo sapiens, UniProt P11474)
T1 sequence (P11474 193-421 limits assumed): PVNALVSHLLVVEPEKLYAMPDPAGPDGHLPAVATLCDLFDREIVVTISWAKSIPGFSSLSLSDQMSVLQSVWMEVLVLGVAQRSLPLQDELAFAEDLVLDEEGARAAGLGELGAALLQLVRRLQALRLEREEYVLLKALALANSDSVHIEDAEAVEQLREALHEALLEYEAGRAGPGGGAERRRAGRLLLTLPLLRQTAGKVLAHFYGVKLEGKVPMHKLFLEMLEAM
Assay: TR-FRET assay (disruption of co-activator peptide binding to ERR1 LBD)
Assay type: biochemical
Settings: 6 nM 6His-ERR1LBD, 6 nM GST-SRC-2 peptide; average of 3 independent experiments
Summary of the method: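 His-tagged ERR1 ligand-binding domain and GST-labelled SRC-2 peptide, each 6 nM, equilibrated at 25° C for 4-18 h in Tris pH 8/Hepes/KCl/DTT/delipidated BSA buffer. Compound-induced loss of co-activator binding read as Eu cryptate→XL665 energy transfer; values from hyperbolic curve fits averaged over 3 independent runs.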

SMILES | pEC50
O=C1S/C(=C\c2ccc3c(c2)c(Cl)nn3Cc2ccc(Cl)cc2C(F)(F)F)C(=O)N1CCN1CCCC1 [Compound 300, (5Z)-5-({3-Chloro-1-[4-chloro-2-(trifluoromethyl)benzyl]-1H-indazol-5-yl}methylidene)-3-(2-pyrrolidin-1-ylethyl)-1,3-thiazolidine-2,4-dione] | 8.15
COCCN1C(=O)S/C(=C\c2ccc3c(cnn3Cc3ccc(Cl)cc3C(F)(F)F)c2)C1=O [Compound 123, (5Z)-5-({1-[4-Chloro-2-(trifluoromethyl)benzyl]-1H-indazol-5-yl}methylidene)-3-(2-methoxyethyl)-1,3-thiazolidine-2,4-dione] | 7.35
CN(CCO)CCN1C(=O)S/C(=C\c2ccc3c(cnn3Cc3ccc(Cl)cc3C(F)(F)F)c2)C1=O [Compound 51, (5Z)-5-({1-[4-Chloro-2-(trifluoromethyl)benzyl]-1H-indazol-5-yl}methylidene)-3-{2-[(2-hydroxyethyl)(methyl)amino]ethyl}-1,3-thiazolidine-2,4-dione] | 7.59
O=C(O)CN1C(=O)S/C(=C\c2cc3cnn(Cc4ccc(Cl)cc4C(F)(F)F)c3cc2F)C1=O [Compound 348, [(5Z)-5-({1-[4-Chloro-2-(trifluoromethyl)benzyl]-6-fluoro-1H-indazol-5-yl}methylidene)-2,4-dioxo-1,3-thiazolidin-3-yl]acetic acid] | 8.15
NS(=O)(=O)N1CCC(N2C(=O)S/C(=C\c3ccc4c(cnn4Cc4ccc(Cl)cc4C(F)(F)F)c3)C2=O)CC1 [Compound 34, 4-[(5Z)-5-({1-[4-Chloro-2-(trifluoromethyl)benzyl]-1H-indazol-5-yl}methylidene)-2,4-dioxo-1,3-thiazolidin-3-yl]piperidine-1-sulfonamide] | 7.64
CN1CCC[C@H]1CN1C(=O)S/C(=C\c2ccc3c(cnn3Cc3ccc(C(F)(F)F)cc3C(F)(F)F)c2)C1=O [Compound 69, (5Z)-5-({1-[2,4-Bis(trifluoromethyl)benzyl]-1H-indazol-5-yl}methylidene)-3-{[(2S)-1-methylpyrrolidin-2-yl]methyl}-1,3-thiazolidine-2,4-dione] | 7.64
O=C1CNCCC1N1C(=O)S/C(=C\c2ccc3c(cnn3Cc3ccc(Cl)cc3C(F)(F)F)c2)C1=O (centres unmarked) [Compound 341, (5Z)-5-({1-[4-Chloro-2-(trifluoromethyl)benzyl]-1H-indazol-5-yl}methylidene)-3-(3-oxopiperidin-4-yl)-1,3-thiazolidine-2,4-dione] | 7.41
NS(=O)(=O)NCCN1C(=O)S/C(=C\c2ccc3c(cnn3Cc3ccc(Cl)cc3C(F)(F)F)c2)C1=O [Compound 50, N-{2-[(5Z)-5-({1-[4-Chloro-2-(trifluoromethyl)benzyl]-1H-indazol-5-yl}methylidene)-2,4-dioxo-1,3-thiazolidin-3-yl]ethyl}sulfamide] | 7.40
NC(CN1C(=O)S/C(=C\c2ccc3c(cnn3Cc3ccc(Cl)cc3C(F)(F)F)c2)C1=O)C(F)(F)F (centres unmarked) [Compound 169, (5Z)-3-(2-Amino-3,3,3-trifluoropropyl)-5-({1-[4-chloro-2-(trifluoromethyl)benzyl]-1H-indazol-5-yl}methylidene)-1,3-thiazolidine-2,4-dione] | 7.49
COc1ccc(Cn2nc(OC)c3cc(/C=C4\SC(=O)N(CCN5CCOCC5)C4=O)ccc32)c(C(F)(F)F)c1 [Compound 25, (5Z)-5-({3-Methoxy-1-[4-methoxy-2-(trifluoromethyl)benzyl]-1H-indazol-5-yl}methylidene)-3-(2-morpholin-4-ylethyl)-1,3-thiazolidine-2,4-dione] | 7.80
O=C(O)C(CC1CCNCC1)N1C(=O)S/C(=C\c2ccc3c(cnn3Cc3ccc(Cl)cc3C(F)(F)F)c2)C1=O (centres unmarked) [Compound 228, 2-[(5Z)-5-({1-[4-Chloro-2-(trifluoromethyl)benzyl]-1H-indazol-5-yl}methylidene)-2,4-dioxo-1,3-thiazolidin-3-yl]-3-piperidin-4-ylpropanoic acid] | 7.31
O=C1S/C(=C\c2ccc3c(cnn3Cc3ccc(Cl)cc3C(F)(F)F)c2)C(=O)N1[C@@H]1CN2CCC1CC2 [Compound 132, (5Z)-3-[(3S)-1-Azabicyclo[2.2.2]oct-3-yl]-5-({1-[4-chloro-2-(trifluoromethyl)benzyl]-1H-indazol-5-yl}methylidene)-1,3-thiazolidine-2,4-dione] | 7.74
CC(=O)NS(=O)(=O)CN1C(=O)S/C(=C\c2ccc3c(cnn3Cc3ccc(C(F)(F)F)cc3C(F)(F)F)c2)C1=O [Compound 71, N-({[(5Z)-5-({1-[2,4-Bis(trifluoromethyl)benzyl]-1H-indazol-5-yl}methylidene)-2,4-dioxo-1,3-thiazolidin-3-yl]methyl}sulfonyl)acetamide] | 7.06
NC1(CN2C(=O)S/C(=C\c3ccc4c(cnn4Cc4ccc(Cl)cc4C(F)(F)F)c3)C2=O)CC1 [Compound 194, (5Z)-3-[(1-Aminocyclopropyl)methyl]-5-({1-[4-chloro-2-(trifluoromethyl)benzyl]-1H-indazol-5-yl}methylidene)-1,3-thiazolidine-2,4-dione] | 7.47
O=C1S/C(=C\c2ccc3c(cnn3Cc3ccc(Cl)cc3C(F)(F)F)c2)C(=O)N1C1CCCNC1 (centres unmarked) [Compound 124, (5Z)-5-({1-[4-Chloro-2-(trifluoromethyl)benzyl]-1H-indazol-5-yl}methylidene)-3-piperidin-3-yl-1,3-thiazolidine-2,4-dione] | 7.29
O=C1S/C(=C\c2ccc3c(cnn3Cc3ccc(Cl)cc3C(F)(F)F)c2)C(=O)N1OCCN1CCCC1 [Compound 289, (5Z)-5-({1-[4-Chloro-2-(trifluoromethyl)benzyl]-1H-indazol-5-yl}methylidene)-3-(2-pyrrolidin-1-ylethoxy)-1,3-thiazolidine-2,4-dione] | 7.77
O=C1S/C(=C\c2ccc3c(cnn3Cc3ccc(Cl)cc3C(F)(F)F)c2)C(=O)N1C1CNC1 [Compound 102, (5Z)-3-Azetidin-3-yl-5-({1-[4-chloro-2-(trifluoromethyl)benzyl]-1H-indazol-5-yl}methylidene)-1,3-thiazolidine-2,4-dione] | 7.43
O=C1S/C(=C\c2ccc3c(cnn3Cc3ccc(C(F)(F)F)cc3C(F)(F)F)c2)C(=O)N1[C@@H]1CCNC[C@H]1F (relative stereo) [Compound 274, (5Z)-5-({1-[2,4-Bis(trifluoromethyl)benzyl]-1H-indazol-5-yl}methylidene)-3-(trans-3-fluoropiperidin-4-yl)-1,3-thiazolidine-2,4-dione] | 7.06

Next, values leading:

pEC50 | SMILES
7.66 | O=C1S/C(=C\c2ccc3c(cnn3Cc3ccc(Cl)cc3C(F)(F)F)c2)C(=O)N1N1CCNCC1 [Compound 351, (5Z)-5-({1-[4-Chloro-2-(trifluoromethyl)benzyl]-1H-indazol-5-yl}methylidene)-3-piperazin-1-yl-1,3-thiazolidine-2,4-dione]
8.40 | CS(=O)(=O)NN1C(=O)S/C(=C\c2ccc3c(cnn3Cc3ccc(Br)cc3C(F)(F)F)c2)C1=O [Compound 364, N-[(5Z)-5-({1-[4-Bromo-2-(trifluoromethyl)benzyl]-1H-indazol-5-yl}methylidene)-2,4-dioxo-1,3-thiazolidin-3-yl]methanesulfonamide]
6.91 | CC(C)N1CC[C@@H](N2C(=O)S/C(=C\c3ccc4c(cnn4Cc4ccc(Cl)cc4C(F)(F)F)c3)C2=O)[C@H](F)C1 [Compound 387, (5Z)-5-({1-[4-Chloro-2-(trifluoromethyl)benzyl]-1H-indazol-5-yl}methylidene)-3-[(3R,4R)-3-fluoro-1-(1-methylethyl)piperidin-4-yl]-1,3-thiazolidine-2,4-dione]
6.91 | CN(CCN1C(=O)S/C(=C\c2ccc3c(cnn3Cc3ccc(Cl)cc3C(F)(F)F)c2)C1=O)C(=O)C(F)(F)F [Compound 394, N-{2-[(5Z)-5-({1-[4-Chloro-2-(trifluoromethyl)benzyl]-1H-indazol-5-yl}methylidene)-2,4-dioxo-1,3-thiazolidin-3-yl]ethyl}-2,2,2-trifluoro-N-methylacetamide]
8.40 | CS(=O)(=O)NN1C(=O)S/C(=C\c2ccc3c(c2)c(I)nn3Cc2ccc(Cl)cc2C(F)(F)F)C1=O [Compound 367, N-[(5Z)-5-({1-[4-Chloro-2-(trifluoromethyl)benzyl]-3-iodo-1H-indazol-5-yl}methylidene)-2,4-dioxo-1,3-thiazolidin-3-yl]methanesulfonamide]
< 5.00 | O=C1S/C(=C\c2ccc3c(cnn3Cc3ccc(Cl)cc3C(F)(F)F)c2)C(=O)N1CC1COS(=O)(=O)N1 (centres unmarked) [Compound 409, (5Z)-5-({1-[4-Chloro-2-(trifluoromethyl)benzyl]-1H-indazol-5-yl}methylidene)-3-[(2,2-dioxido-1,2,3-oxathiazolidin-4-yl)methyl]-1,3-thiazolidine-2,4-dione]
8.00 | O=C1S/C(=C\c2ccc3c(cnn3Cc3ccc(Cl)cc3C(F)(F)F)c2)C(=O)N1CCNS(=O)(=O)N1CCOCC1 [Compound 398, N-{2-[(5Z)-5-({1-[4-Chloro-2-(trifluoromethyl)benzyl]-1H-indazol-5-yl}methylidene)-2,4-dioxo-1,3-thiazolidin-3-yl]ethyl}morpholine-4-sulfonamide]
7.10 | O=C1S/C(=C\c2ccc3c(cnn3Cc3ccc(Cl)cc3C(F)(F)F)c2)C(=O)N1CCNS(=O)(=O)N1CCCC1 [Compound 399, N-{2-[(5Z)-5-({1-[4-Chloro-2-(trifluoromethyl)benzyl]-1H-indazol-5-yl}methylidene)-2,4-dioxo-1,3-thiazolidin-3-yl]ethyl}pyrrolidine-1-sulfonamide]
